In US4221794A, “Method of imparting immunomodulating and antiviral activity” (Newport Pharmaceuticals International, Inc., priority 1979, dated 1980):
Read-outs that look alike come from different tables or passages of the source.

Tests used:
influenza virus [1] = assay: microbe, parasite or virus in culture; format: cell-based, influenza virus Type A/USSR 90 (HeLa cell cultures); conditions: for inhibition at 100 µg/mL: unidentified influenza virus, read-out: % Inhibition of Hemadsorption Foci, Test Compound Conc. >100 μg/ml
[2] = tested on: human peripheral blood lymphocytes; assay: Mitogen (PHA) induced human lymphocyte proliferation; format: cell-based; conditions: plus = immunostimulating, minus = immunoinhibiting, 0 = neither
influenza virus [3] = assay: Anti-influenza activity (overall); format: cell-based, several strains of A and B sub-types
mouse lymphocytes = assay: Mitogen (Con A) induced mouse lymphocyte (spleen cell) proliferation; format: cell-based; conditions: plus = immunostimulating, minus = immunoinhibiting, 0 = neither
Text: The following three assay procedures are used to evaluate the ability of the test substances to modulate the activity of several classes of cells in the immune system. In these systems it is possible to identify both immunopotentiating activity (evidence by an enhancement of the parameter examined) as well as immunosuppressant activity (evidenced by an inhibition of the parameter examined).
1. Mitogen-Induced Mouse Spleen Cell Assay
Mouse spleen cells contain a population of both B and T lymphocytes which can be stimulated by a number of foreign substances (e.g., plant mitogens such as Con A) to proliferate. This enhanced proliferation is an indication of enhanced cell mediated immunity. The method below describes the system used to evaluate test substances as immunopotentiators.
Concanavalin A (Calbiochem, La Jolla, California), Lot #210073, lyophilized in NaCl, was prepared first as a 1% solution and diluted as a 2×concentration for each dilution (0.5, 1.0, 2.5 μg/ml).
Six to eight week old male Balb/c and C3 H inbred mice were obtained from the following sources: Flow Research Animals, Inc., Dublin, Virginia; Charles River Breeding Laboratories, Wilmington, Massachusetts; Laboratory Supply Company, Indianapolis, Indiana; and Lionel Strong Foundation, San Diego, California.
Three to five mice were sacrificed by cervical dislocation and the spleens aseptically removed. Pooled spleens were minced and teased with sterile forceps; then strained through a double layer of nylon mesh. The cell suspension was washed once with 15 ml of RPMI 1640 supplemented with 5% fetal calf serum and antibiotics. Cells were cultured at a concentration of 10^6 cells/0.1 ml/well in micro-plates. Cultures were incubated in the presence or absence of mitogen in a humidified atmosphere containing 5% CO2 for 48 hours. The test compound was added to cultures at various concentrations concommitant with mitogen.
Proliferation was assayed by the degree of incorporation of 1.0 μCi of [^3 H] thymidine over an 18 hour incubation period. Cultures were harvested by a MASH unit (Otto Hiller Co., Madison, Wisconsin) and thymidine incorporation was assayed by liquid scintillation spectrometry. Cultures were performed in triplicate and data are expressed as means plus or minus the standard error of the experimental means. Drug stimulation indices over control values were also calculated and portrayed graphically.
(§1) Table 4 above presents the results of an evaluation of a number of these subject compounds as potentiators of the immune response. Three different test systems were used. The first involves a measure of the ability of the test compound to enhance the ability of mouse lymphocytes to proliferate in response to a plant mitogen (Con A). The second involves measuring the ability of the test compounds to enhance human lymphocyte proliferation in response to a second plant mitogen (PHA). The third system measures the ability of these test substances to enhance macrophage proliferation in response to a natural lymphokine (MMF, Macrophage Mitogenic Factor).

guinea pig macrophages = assay: Lymphokine (MMF) induced guinea pig macrophage proliferation; format: cell-based; conditions: plus = immunostimulating, minus = immunoinhibiting, 0 = neither
Method: 3. The macrophage represents a subpopulation of white blood cells which is an important component of the immune system in control of both cellular and humoral immunity. The assay system described below evaluates the substances studied as potentiators of macrophage function.
Phytohemagglutinin (PHA) (HA-17) was purchased from Burroughs Wellcome. A preparation containing Macrophage Mitogen Factor (MMF) and Macrophage Activating Factor (MAF) was prepared from antigen-stimulated immune lymph node lymphocytes (guinea pig) as previously described by Hadden et al, Nature 257, 483-485 (1975). […] The active fraction was employed in both the proliferation and activation assays.
Ficoll-hypaque purified human peripheral blood lymphocytes were prepared and PHA-induced lymphocyte proliferation was assayed by the incorporation of tritiated thymidine as described in Hadden et al., Cell. Immunol. 20, 98-103 (1975). Each compound was analyzed in the presence of suboptimal, optimal and supraoptimal concentrations of PHA (0.001, 0.01, 0.1 units/ml respectively). Paraffin oil-induced guinea pig peritoneal macrophages were prepared and incubated as monolayer culture (>98% pure macrophages). Lymphokine (MMF)-induced proliferation was assayed by the incorporation of tritiated thymidine at 3 and 5 days of culture as described, Hadden et al, Nature 257, 483-485 (1975). Lymphokine (MAF)-induced macrophage activation to kill Listeria monocytogenes following 5 days of culture in the presence or absence of MAF was performed during a 6 hour period as described in Hadden and England, Immunopharmacology, pages 87-100 (Plenum Press, 1977). Phagocytosis was quantitated during a 20-minute exposure to Listeria monocytogenes by counting the number of macrophages containing bacteria and the number of bacteria per phagocytic cell on gram stained monolayers in Labtek chambers. Intracellular killing of bacteria was evaluated by counting the number of cells containing bacteria and the number of bacteria/cell 6 hours after the initial 20 minute exposure. Parallel experiments in which macrophages were lysed and intracellular bacteria were cultured confirm the validity of bacterial activity determined by this manner in this system. The drugs were employed in each of the three systems over serial log concentration range in triplicate in the presence and absence of mitogen or lymphokine. Each type of experiment was performed at least three times. Previous experiments indicate a parallelism of response to pharmacologic modulation in the proliferation and achivation assays.
as §1

With `OCCn1cnc2c(=S)[nH]cnc21` [NPT 15435] the inhibition at 100 µg/mL (influenza virus [1]) was 10%, the “Maximum Percent Change, Mitogen Induced (PHA) Human Lymph. Prolif.” value ([2]; 1.0-10 (unit not given)) was 45% and the “Maximum Percent Change, Mitogen Induced (PHA) Human Lymph. Prolif.” value ([2]; 10-100 (unit not given)) was -50%. For the same molecule, the “Maximum Percent Change, Mitogen Induced (PHA) Human Lymph. Prolif.” value ([2]; .01-1.0 (unit not given)) was 55%.

With `OCCn1cnc2c(S)ncnc21` [NPT 15437] the inhibition at 100 µg/mL (influenza virus [1]) was 65% and the “potentiation of anti-influenza activity by DIP.PAcBA salt” value (“potentiation of anti-influenza activity” for short) (influenza virus [3]) was “Yes”.

With `CC(CO)n1cnc2c(=O)[nH]cnc21` (centres unmarked) [NPT 15443, 9-(1-HYDROXY-2-PROPYL)HYPOXANTHINE] the “% Inhibition of Hemadsorption Foci” value (influenza virus [1]; Test Compound Conc. >100 μg/ml, listed as 15443) was 0%, the “Maximum Percent Change, Mitogen Induced (Con A) Mouse Lymph. Prolif.” value (mouse lymphocytes; 1.0-10 (unit not given)) was “+27%” and the “Maximum Percent Change, Mitogen Induced (Con A) Mouse Lymph. Prolif.” value (mouse lymphocytes; 10-100 (unit not given)) was “+27%”. The “Maximum Percent Change, Mitogen Induced (Con A) Mouse Lymph. Prolif.” value (mouse lymphocytes; .01-1.0 (unit not given)) was “+17%”, the “Maximum Percent Change, Mitogen Induced (PHA) Human Lymph. Prolif.” value ([2]; 1.0-10 (unit not given)) was “+13%” and the “Maximum Percent Change, Mitogen Induced (PHA) Human Lymph. Prolif.” value ([2]; 10-100 (unit not given)) was 0%. For the same molecule, the “Maximum Percent Change, Mitogen Induced (PHA) Human Lymph. Prolif.” value ([2]; .01-1.0 (unit not given)) was 0%, the “Maximum Percent Change, Lymphokine Induced (MMF) Guinea Pig Mac. Prolif.” value (guinea pig macrophages; 1.0-10 (unit not given)) was 0% and the “Maximum Percent Change, Lymphokine Induced (MMF) Guinea Pig Mac. Prolif.” value (guinea pig macrophages; .01-1.0 (unit not given)) was “+20%”.

With `CC(CO)n1cnc2c(=O)[nH]cnc21` (centres unmarked) [NPT 15444] the “% Inhibition of Hemadsorption Foci” value (influenza virus [1]; Test Compound Conc. >100 μg/ml, listed as 15444) was 54% and the “potentiation of anti-influenza activity” value (influenza virus [3]) was “Yes”.

In the case of `CC(O)Cn1cnc2c(=O)[nH]cnc21` (centres unmarked) [NPT 15446, 9-(2-HYDROXY-1-PROPYL)HYPOXANTHINE], the “% Inhibition of Hemadsorption Foci” value (influenza virus [1]; Test Compound Conc. <10 μg/ml, listed as 15446) is reported as 2%, the “% Inhibition of Hemadsorption Foci” value (influenza virus [1]; Test Compound Conc. >100 μg/ml, listed as 15446) is reported as 0% and the “Maximum Percent Change, Mitogen Induced (Con A) Mouse Lymph. Prolif.” value (mouse lymphocytes; 1.0-10 (unit not given)) is reported as 12%. The “Maximum Percent Change, Mitogen Induced (Con A) Mouse Lymph. Prolif.” value (mouse lymphocytes; 10-100 (unit not given)) was 0%, the “Maximum Percent Change, Mitogen Induced (Con A) Mouse Lymph. Prolif.” value (mouse lymphocytes; .01-1.0 (unit not given)) was 6% and the “Maximum Percent Change, Mitogen Induced (PHA) Human Lymph. Prolif.” value ([2]; 1.0-10 (unit not given)) was 0%. For the same molecule, the “Maximum Percent Change, Mitogen Induced (PHA) Human Lymph. Prolif.” value ([2]; 10-100 (unit not given)) was 0%, the “Maximum Percent Change, Mitogen Induced (PHA) Human Lymph. Prolif.” value ([2]; .01-1.0 (unit not given)) was 0% and the “Maximum Percent Change, Lymphokine Induced (MMF) Guinea Pig Mac. Prolif.” value (guinea pig macrophages; 1.0-10 (unit not given)) was 0%. The “Maximum Percent Change, Lymphokine Induced (MMF) Guinea Pig Mac. Prolif.” value (guinea pig macrophages; 10-100 (unit not given)) was 0% and the “Maximum Percent Change, Lymphokine Induced (MMF) Guinea Pig Mac. Prolif.” value (guinea pig macrophages; .01-1.0 (unit not given)) was 0%.

`CC(O)Cn1cnc2c(=O)[nH]cnc21` (centres unmarked) [NPT 15447] was tested, and the “% Inhibition of Hemadsorption Foci” value (influenza virus [1]; Test Compound Conc. <10 μg/ml, listed as 15447) was 10%, the “% Inhibition of Hemadsorption Foci” value (influenza virus [1]; Test Compound Conc. >100 μg/ml, listed as 15447) was 34% and the “potentiation of anti-influenza activity” value (influenza virus [3]) was “Yes”.

For `CC(=O)Nc1ccc(C(=O)O)cc1.CC(O)CN(C)C` [compound 15110, dimethylamino-2-propanol-p-acetamido benzoate, reference compound], the “% Inhibition of Hemadsorption Foci” value (influenza virus [1]) was 0%.
